Laboratory results from PMC4054929 (Bioorganic & medicinal chemistry, 2014).
“And” between values parts separate entries of the source, which are not always exact repeats. Equal values may be shown once.

Experiments:
[1] = In vivo biodistribution and regional brain uptake in rats; conditions: for Biodistribution, blood / Biodistribution, cerebellum / Biodistribution, fat / Biodistribution, heart / Biodistribution, kidney / Biodistribution, liver / Biodistribution, lung / Biodistribution, muscle / Biodistribution, striatum / Biodistribution, total brain: male SD rats, i.v.
[2] = tested on: PDE10A; conditions: NHP brain
[3] = molecular target: PDE10A (Rattus norvegicus, UniProt Q9QYJ6)
Sequence of PDE10A (Rattus norvegicus, UniProt Q9QYJ6) (Q9QYJ6 whole entry): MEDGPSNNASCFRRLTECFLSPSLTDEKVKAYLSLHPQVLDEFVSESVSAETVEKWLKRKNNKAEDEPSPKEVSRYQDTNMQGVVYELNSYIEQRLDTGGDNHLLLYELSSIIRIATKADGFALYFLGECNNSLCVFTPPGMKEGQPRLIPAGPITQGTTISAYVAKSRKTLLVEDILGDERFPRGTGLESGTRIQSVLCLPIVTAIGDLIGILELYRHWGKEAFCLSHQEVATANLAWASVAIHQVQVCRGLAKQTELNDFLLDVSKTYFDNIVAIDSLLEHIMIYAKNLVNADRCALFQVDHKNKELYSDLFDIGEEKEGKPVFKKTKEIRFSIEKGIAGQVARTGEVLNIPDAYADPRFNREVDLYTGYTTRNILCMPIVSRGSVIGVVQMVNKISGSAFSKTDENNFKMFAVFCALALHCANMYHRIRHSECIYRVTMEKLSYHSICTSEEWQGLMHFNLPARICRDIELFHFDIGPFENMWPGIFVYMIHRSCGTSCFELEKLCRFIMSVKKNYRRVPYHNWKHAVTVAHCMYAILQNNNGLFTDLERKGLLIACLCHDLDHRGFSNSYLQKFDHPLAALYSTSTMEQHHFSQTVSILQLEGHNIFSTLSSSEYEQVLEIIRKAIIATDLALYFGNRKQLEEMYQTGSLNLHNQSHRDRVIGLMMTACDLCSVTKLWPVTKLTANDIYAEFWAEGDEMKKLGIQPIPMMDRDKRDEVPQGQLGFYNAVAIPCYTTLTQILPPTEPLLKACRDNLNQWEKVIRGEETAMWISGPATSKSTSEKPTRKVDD

[4] = rats pretreated with MP-10 2.0 mg/kg 5 min prior to tracer, 30 min p.i.

Cn1cc(-c2ccncc2)c(-c2ccc(OCc3cc(O[11CH3])c4ccccc4n3)cc2)n1 [[^11C]2, 4-(methoxy-^11C)-2-((4-(1-methyl-4-(pyridin-4-yl)-1H-pyrazol-3-yl)phenoxy)methyl)quinoline]
striatum: cerebellum ratio ([1]; SD rats, 60 min p.i.): 2.5 fold | Biodistribution, blood ([1]; 5 min p.i.): 0.268 ± 0.053 %ID/gram | Biodistribution, cerebellum ([1]; 5 min p.i.): 0.215 ± 0.031 %ID/gram | Biodistribution, fat ([1]; 5 min p.i.): 0.242 ± 0.065 %ID/gram | Biodistribution, heart ([1]; 5 min p.i.): 0.464 ± 0.023 %ID/gram | Biodistribution, kidney ([1]; 5 min p.i.): 2.340 ± 0.295 %ID/gram | Biodistribution, liver ([1]; 5 min p.i.): 7.080 ± 0.435 %ID/gram | Biodistribution, lung ([1]; 5 min p.i.): 0.890 ± 0.206 %ID/gram | Biodistribution, muscle ([1]; 5 min p.i.): 0.258 ± 0.035 %ID/gram | Biodistribution, striatum ([1]; 5 min p.i.): 0.352 ± 0.052 ^a %ID/gram | Biodistribution, total brain ([1]; 5 min p.i.): 0.210 ± 0.035 %ID/gram | Biodistribution, blood ([1]; 30 min p.i. (control)): 0.192 ± 0.075 %ID/gram | Biodistribution, cerebellum ([1]; 30 min p.i. (control)): 0.066 ± 0.023 %ID/gram | Biodistribution, fat ([1]; 30 min p.i. (control)): 0.371 ± 0.091 %ID/gram | Biodistribution, heart ([1]; 30 min p.i. (control)): 0.187 ± 0.042 %ID/gram | Biodistribution, kidney ([1]; 30 min p.i. (control)): 1.294 ± 0.268 %ID/gram | Biodistribution, liver ([1]; 30 min p.i. (control)): 10.085 ± 1.972 %ID/gram | Biodistribution, lung ([1]; 30 min p.i. (control)): 0.233 ± 0.045 %ID/gram | Biodistribution, muscle ([1]; 30 min p.i. (control)): 0.133 ± 0.035 %ID/gram | Biodistribution, striatum ([1]; 30 min p.i. (control)): 0.230 ± 0.030 ^a %ID/gram and 0.230 ± 0.030 %ID/gram | Biodistribution, total brain ([1]; 30 min p.i. (control)): 0.087 ± 0.016 %ID/gram | Biodistribution, blood ([1]; 60 min p.i.): 0.152 ± 0.030 %ID/gram | Biodistribution, cerebellum ([1]; 60 min p.i.): 0.046 ± 0.014 %ID/gram | Biodistribution, fat ([1]; 60 min p.i.): 0.278 ± 0.040 %ID/gram | Biodistribution, heart ([1]; 60 min p.i.): 0.121 ± 0.025 %ID/gram | Biodistribution, kidney ([1]; 60 min p.i.): 0.758 ± 0.112 %ID/gram | Biodistribution, lung ([1]; 60 min p.i.): 0.163 ± 0.027 %ID/gram | Biodistribution, muscle ([1]; 60 min p.i.): 0.084 ± 0.013 %ID/gram | Biodistribution, striatum ([1]; 60 min p.i.): 0.201 ± 0.037 ^a %ID/gram | Biodistribution, total brain ([1]; 60 min p.i.): 0.057 ± 0.008 %ID/gram | blood–brain-barrier penetration [2]: readily penetrate the blood–brain-barrier | Distribution, blood, MP-10 block [3, 4]: 0.343 ± 0.007 %ID/gram | Distribution, cerebellum, MP-10 block [3, 4]: 0.112 ± 0.011 %ID/gram | Distribution, fat, MP-10 block [3, 4]: 0.697 ± 0.219 %ID/gram | Distribution, heart, MP-10 block [3, 4]: 0.310 ± 0.040 %ID/gram | Distribution, kidney, MP-10 block [3, 4]: 1.072 ± 0.069 %ID/gram | Distribution, liver, MP-10 block [3, 4]: 4.723 ± 0.489 %ID/gram | Distribution, lung, MP-10 block [3, 4]: 0.362 ± 0.021 %ID/gram | Distribution, muscle, MP-10 block [3, 4]: 0.224 ± 0.012 %ID/gram | Distribution, striatum, MP-10 block [3, 4]: 0.175 ± 0.022 %ID/gram | Distribution, total brain, MP-10 block [3, 4]: 0.114 ± 0.007 %ID/gram | striatal binding after blocking dose of MP-10 ([3]; rats, MP-10 2 mg/kg i.v. 5 min prior to tracer, p < 0.05): significant reduction
